Measurements from patent publication US20070213291A1, “Therapeutically useful synthetic oligonucleotides” (priority 1999, published 2007).
Where two headings read alike, the source gives them in different places.

How the values were obtained:
[1] = tested on: Jurkat human leukemia T cells; test: Inhibition of Jurkat human leukemia T cell proliferation (MTT reduction); format: cell-based; conditions: for % INHIBITION of Jurkat human leukemia T cell proliferation: 100 μg/ml sequence, 48 h, 2.5×10^5 cells/ml
Outline: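 Jurkat cells at 2.5×10^5 cells/ml exposed to 100 μg/ml of 2–45-base A/C/G/T sequences (0 μg/ml control) for 48 h, 37° C, 5% CO2. Viability by MTT reduction read at 570 nm.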

[2] = tested on: MCF-7 human breast cancer cells; test: Inhibition of MCF-7 cell proliferation (MTT); format: cell-based; conditions: for inhibition at 1 µg/mL: Homo sapiens, MCF7
Outline: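 Cells at 2.5×10^5 cells/ml (GT 3- and 6-base series at 5×10^5 cells/ml) treated with 100 μg/ml of 2-45-base oligonucleotide sequences versus untreated control for 48 h at 37 °C, 5% CO2. Proliferation read by MTT reduction at 570 nm.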

[3] = tested on: MCF-7 human breast cancer cells; test: MCF-7 human breast tumor xenografts in female nude BALB/c mice; format: in vivo; conditions: after 4 weeks of treatment, compared with other groups (group 1 saline)
Method: MCF-7 human breast cancer cells are implanted subcutaneously as xenografts, in female nude BALB/c mice. The mice are divided into 6 groups of 10 mice. […] After 4 weeks of treatment, the mice are sacrificed and tumor mass is determined.

[4] = tested on: Jurkat human leukemia T cells; test: Apoptosis by phosphatidylserine/annexin V-FITC flow cytometry; format: cell-based; conditions: 50 μM sequence
Outline: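 Jurkat cells were exposed to 3–7-base oligonucleotides (GT, ACGT, AG, GG, AGT, CGT sequences) at 50 μM. Separately, 6-base GT and complementary AC sequences, alone or hybridized 1:1 (10 min, 65 °C), were applied for 24 h. Phosphatidylserine exposure was quantified by flow cytometry with FITC-annexin V.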

[5] = tested on: Jurkat human leukemia T cells; test: NuMA release into supernatant (ELISA); format: cell-based; conditions: Jurkat, 50 μM sequence
Outline: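 Jurkat T cells (1×10^6/ml) exposed to GT-containing oligonucleotide sequences, at 50 μM in some experiments, for 24 h in some experiments. NuMA released into the supernatant quantified by commercial ELISA.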

[6] = tested on: THP-1 human acute monocytic leukemia cells; test: Cytokine production by THP-1 cells (ELISA); format: cell-based; conditions: THP-1, 1×10^6 cells, 100 μg/ml, 48 h; for ↑ IL-12 (fold increase treated vs control cells): p70 complex and free p40
Outline: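 1×10^6 cells exposed to 100 μg/ml of each oligonucleotide sequence for 48 h at 37° C in 5% CO2, unless stated otherwise. Cytokines quantified in culture supernatant by ELISA, IL-12 assay detecting both p70 and free p40; values are fold increase over untreated control cells.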

[7] = tested on: human peripheral blood mononuclear cells; test: Cytokine production by human PBMC (ELISA); format: cell-based; conditions: PBMC of 7 healthy humans, 100 μg/ml, 48 h
Outline: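 PBMC from 7 healthy donors, Ficoll-isolated; 1×10^6 cells incubated with 100 μg/ml oligonucleotide sequence for 48 h at 37 °C, 5% CO2. IL-1beta, IL-6, IL-10, IL-12 (p70 plus free p40) and TNF-alpha measured by ELISA in supernatant, expressed as fold increase over control cells.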

[8] = tested on: chimpanzee PBMCs; test: Cytokine production by chimpanzee PBMC (ELISA); format: cell-based; conditions: PBMC of 4 healthy chimpanzees, 100 μg/ml, 48 h
Outline: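 PBMCs from 4 healthy chimpanzees (1×10^6 cells) were incubated 48 h at 37 °C, 5% CO2 with 100 μg/ml of each 6-base sequence. Supernatant IL-10, IL-12 (p70 plus free p40) and TNF-alpha were measured by ELISA. Values are fold increase over untreated control cells.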

[9] = tested on: rhesus monkey PBMCs; test: Cytokine production by rhesus monkey PBMC (ELISA); format: cell-based; conditions: PBMC of 4 healthy rhesus monkeys, 100 μg/ml, 48 h
Outline: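 Peripheral blood mononuclear cells taken from 4 healthy rhesus monkeys were cultured at 1×10^6 cells with 100 μg/ml of each test sequence for 48 h at 37° C. under 5% CO2. Cytokine levels in 100 μl of supernatant were quantified in pg/ml by commercial ELISA and reported as fold increase over untreated control cells.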

[10] = tested on: LNCaP human prostate cancer cells; test: LNCaP human prostate cancer xenografts in male nude nu/nu mice; format: in vivo; conditions: after 4 weeks of treatment, compared with other groups (group 1 saline, group 5 BCG A-3)
Method: LNCaP human prostate cancer cells are implanted subcutaneously, as xenografts, in male nude nu/nu mice. The mice are divided into 5 groups of 10 mice. On day 0, group 1 mice receive saline, group 2 mice receive 3 base SEQ ID NO:8, group 3 mice receive 6 base GT SEQ ID NO:25, group 4 mice receive 6 base AG SEQ ID NO:45 and group 5 mice receive 45 base BCG A-3 SEQ ID NO:69. After 4 weeks of treatment, the mice are sacrificed and timor mass is determined.

[11] = tested on: EL-4 murine T lymphoma cells; test: EL-4 murine T lymphoma in C57/BL6 mice; format: in vivo; conditions: after 4 weeks of treatment, compared with group 1 (saline)
Method: EL-4 murine T lymphoma cells are implanted into C57/BL6 mice. The mice are divided into 6 groups of 10 mice. On day 0, group 1 mice receive saline, group 2 mice receive 3 base GT SEQ ID NO:8, group 3 mice receive 6 base SEQ ID NO:25, group 4 mice receive 6 base AG SEQ ID NO:45, group 5 mice receive 18 base GT SEQ ID NO: 18 and group 6 mice receive 27 base GT SEQ ID NO:1. After 4 weeks of treatment, the mice are sacrificed and tumor mass is determined.

[12] = tested on: PC-3 human prostate cancer cells; test: Inhibition of PC-3 cell proliferation (MTT); format: cell-based; conditions: 100 μg/ml, 48 h, 5×10^5 cells/ml
Method: (§1) Cells were seeded in 6 (1 ml/well), 24 (0.5 ml/well) or 96 (0.1 ml/well) well flat-bottom microplates and were maintained at 37° C. in a 5% CO2 atmosphere. Unless stated otherwise, 2.5×10^5 cells/ml were incubated with 0 μg/ml (control) and 100 μg/ml (treated) of 2 to 45 base sequences containing A, C, G and T for 48 h.
(§2) Cell proliferation was measured using dimethylthiazol-diphenyl-tetrazolium (MTT) reduction (Mosman et al. J. Immunol. Methods 65:55, 1983). MTT was measured at a wavelength of 570 nm using a multiplate spectrophotometer reader (ELX800, Bio-TEK Instruments Inc., Winooski, Vt.).
PC-3 prostate cancer cells are a p53 mutated, androgen-independent human solid tumor model. PC-3 cells (5×10^5 cells/ml) were incubated with 3 and 6 base GT sequences (Table 8).

[13] = tested on: OVCAR-3 human ovarian cancer cells; test: Inhibition of OVCAR-3 cell proliferation (MTT); format: cell-based; conditions: 100 μg/ml, 48 h, 5×10^5 cells/ml
Method: as §1, §2
OVCAR-3 ovarian cancer cells are a p53 mutated, p21/waf-1/Cip deleted, metastatic human solid tumor model. OVCAR-3 cells (5×10^5 cells/ml) were incubated with 2, 6 and 18 base GT sequences and with a 6 base AGT sequence (Table 11).

[14] = tested on: SK-OV-3 human ovarian cancer cells; test: Inhibition of SK-OV-3 cell proliferation (MTT); format: cell-based; conditions: 100 μg/ml, 48 h, 5×10^5 cells/ml
Method: as §1, §2
SK-OV-3 ovarian cancer cells are a p53 mutated, p21/waf-1/Cip deleted, p15^ink4B deleted, p16^Ink4 deleted, metastatichuman solid tumor model. SK-OV-3 cells (5×10^5 cells/ml) were incubated with 2, 6 and 18 base GT sequences (Table 12).

[15] = tested on: EL-4 murine T lymphoma cells; test: Inhibition of EL-4 cell proliferation (MTT); format: cell-based; conditions: 100 μg/ml, 48 h
Method: as §1, §2
EL-4 murine lymphoma T cells are a suspension tumor model. EL-4 murine lymphoma T cells were incubated with 6, 18, 27 and 33 base GT sequences and with a 15 base ACG sequence (Table 18).

[16] = tested on: Jurkat human leukemia T cells; test: Cell cycle stage in Jurkat cells (propidium iodide flow cytometry); format: cell-based; conditions: Jurkat, 24 h, 100 μg/ml
Outline: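 Exponentially growing Jurkat cells were exposed for 24 h to 2–45-base A/C/G/T oligonucleotides, or at 1×10^6 cells/ml to 6-base GT and AC strands, alone (heated 10 min, 65 °C) or hybridized 1:1. Detergent-, trypsin-, RNase- and spermine-treated nuclei were propidium iodide-stained and scored for G0/G1, early/mid/late S and G2/M by doublet-discriminating flow cytometry.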

[17] = tested on: MCF-7 human breast cancer cells; test: Cell cycle stage in MCF-7 cells (propidium iodide flow cytometry); format: cell-based; conditions: MCF-7, 5×10^5 cells/ml, 24 h
Method: Cell cycle stage was determined using a […]™ PLUS DNA commercial kit (Becton Dickinson). Briefly, nuclei from cells were obtained by dissolving the cell membrane in a nonionic detergent, eliminating the cell cytoskeleton and nuclear proteins with trypsin, digesting the cellular RNA with RNase and stabilizing the nuclear chromatin with spermine. Propidium iodide was added to the cell nuclei and their fluorescence was analyzed in a flow cytometer equipped with electronic doublet discrimination capability (FACSCalibur, Becton Dickinson, San Jose, Calif.). Accumulation of cells in G0/G1, early S (SE), mid S (SM), late S (SL) or G2/M phases of the cell cycle was analyzed using MODFIT LT software (Verity Software House Inc., Topsham, Mass.).
Exponentially growing Jurkat human leukemia T cells (Table 28) and MCF-7 human breast cancer cells (5×10^5 cells/ml) (Table 29) were incubated for 24 h with 2, 6, 15, 18, 27 and 45 base sequences containing A, C, G and T. The cells were collected and centrifuged and cell cycle stage was determined.

[18] = 5-fluorouracil 0.1 μg/ml, alone or with sequence at 1.0 μg/ml

Compound	tumor mass [3]	% INHIBITION of Jurkat human leukemia T cell proliferation [1] [%]	% of cells in apoptosis (positive for PS/A-V staining) [4] [%]	% NuMA released (treated vs untreated cells) [5] [%]	↑ IL-6 (fold increase treated vs control cells) [6] [x]	↑ IL-12 (fold increase treated vs control cells) [6] [x]	tumor mass [10]	tumor mass [11]	% of cells in phase: G0/G1 [16] [%]	% of cells in phase: G2/M [16] [%]	% of cells in phase: SE [16] [%]	% of cells in phase: SL [16] [%]	% of cells in phase: SM [16] [%]	Arrest (cell cycle) [16]	also measured
O=c1[nH]cc(F)c(=O)[nH]1 [5-Fluorouracil, reference compound]	less tumor mass than group 1 mice														% INHIBITION of Jurkat proliferation, 5-Fluorouracil 0.1 μg/ml [1, 18]: 3%; % INHIBITION of Jurkat proliferation, 5-Fluorouracil 10.0 μg/ml ([1]; 5-fluorouracil 10.0 μg/ml, alone or with sequence at 1.0 μg/ml): 38%; inhibition at 1 µg/mL ([1]; Homo sapiens, Jurkat, 5-fluorouracil 1.0 μg/ml, alone or with sequence at 1.0 μg/ml): 14%; % INHIBITION of MCF-7 proliferation, 5-Fluorouracil 0.1 μg/ml [2, 18]: 13%; inhibition at 1 µg/mL ([2]; 5-fluorouracil 1.0 μg/ml, alone or with sequence at 1.0 μg/ml, read-out: % INHIBITION of MCF-7 proliferation, 5-Fluorouracil 1.0 μg/ml): 28%
CC/C(=C(\c1ccccc1)c1ccc(OCCN(C)C)cc1)c1ccccc1 [Tamoxifen, reference compound]	less tumor mass than group 1 mice														inhibition at 1 µg/mL ([2]; tamoxifen 1.0 μg/ml, alone or with sequence at 1.0 μg/ml, read-out: % INHIBITION of MCF-7 proliferation, Tamoxifen 1.0 μg/ml): 18%; % INHIBITION of MCF-7 proliferation, Tamoxifen 0.1 μg/ml ([2]; tamoxifen 0.1 μg/ml, alone or with sequence at 1.0 μg/ml): 10%; % INHIBITION of MCF-7 proliferation, Tamoxifen 10.0 μg/ml ([2]; tamoxifen 10.0 μg/ml, alone or with sequence at 1.0 μg/ml): 15%
GGGAGG (unmodified DNA) [SEQ ID NO:45]		28	27	74	23.2	−1.6	less tumor mass than groups 1 and 5 mice	less tumor mass than group 1 mice							IL-1 beta fold increase: mean +/− SD [7]: 13.6 +/− 14.9 fold increase; IL-6 fold increase: mean +/− SD [7]: 24.7 +/− 16.5 fold increase; IL-10 fold increase: mean +/− SD [7]: 6.0 +/− 5.5 fold increase; IL-12 fold increase: mean +/− SD [7]: 20.7 +/− 10.3 fold increase; IL-10 fold increase: mean +/− SD [8]: 9.9 +/− 9.2 fold increase; IL-12 fold increase: mean +/− SD [8]: 15.9 +/− 10.7 fold increase; TNF-alpha fold increase: mean +/− SD [8]: 14.5 +/− 6.9 fold increase; IL-10 fold increase: mean +/− SD [9]: 1.1 +/− 0.1 fold increase; IL-12 fold increase: mean +/− SD [9]: 11.9 +/− 4.5 fold increase; TNF-alpha fold increase: mean +/− SD [9]: 16.7 +/− 4.6 fold increase
GTG (chemistry not given here) [SEQ ID NO:8]		46	21	97			less tumor mass than groups 1 and 5 mice	less tumor mass than group 1 mice							% INHIBITION of MCF-7 human breast cancer cell proliferation ([2]; 100 μg/ml, 48 h, 5×10^5 cells/ml): 18%; % INHIBITION of PC-3 human prostate cancer cell proliferation [12]: 13%
GTGTGTGTGTGTGTGTGT (unmodified DNA) [SEQ ID NO:18]		60			2.8			less tumor mass than group 1 mice	24.2	16.4	26.7	8.7	24.0	Mid SM	% INHIBITION of OVCAR-3 human ovarian cancer cell proliferation [13]: 10%; % INHIBITION of SK-OV-3 human ovarian cancer cell proliferation [14]: 6%; % INHIBITION of EL-4 murine T lymphoma cell proliferation [15]: −2%; % cells in phase: G0/G1 [17]: 25.3%; % cells in phase: G2/M [17]: 15.7%; % cells in phase: SE [17]: 31.6%; % cells in phase: SL [17]: 10.5%; % cells in phase: SM [17]: 16.9%; Arrest (cell cycle) [17]: Mid SM
TCCATCGCCAAGGAGATCGAGCTGGAGGATCCGTACGAGAAGATC (unmodified DNA) [BCG A-3, reference compound]		24			2.5	1.7	less tumor mass than group 1 mice		32.3	21.4	20.2	12.0	14.1	None	
